Measurements from patent US11439707B2, “Hypocrellin derivative substituted both in a peri-position and in 2-position by amino, preparation method, and application thereof” (priority 2017, dated 2022).

Experiments:
[1] = absorption spectrum (maximum absorption wavelength, molar extinction coefficient); assay type: physicochemical
[2] = singlet oxygen efficiency test, reference rose bengal; assay type: physicochemical

Row | SMILES | maximum absorption wavelength [1] [nm] | molar extinction coefficient [1] | singlet oxygen yield [2] [%]
1 | COc1c(NCCCC(=O)O)c2c(=O)cc(OC)c3c4c(OC)cc(=O)c5c(O)c(NCCCC(=O)O)c6c(c(c1CC(C)=C6)c23)c54 [HC-8b] | 622 | 28,000 M^−1cm^−1 | 25
2 | COC(=O)C(CO)Nc1c2c3c4c(c(OC)c(=O)c5c(O)cc(OC)c(c6c(OC)cc(NC(CO)C(=O)OC)c(c1=O)c63)c54)C(C(C)=O)C(C)=C2 (stereo not drawn) [HB-24c] | 622 | 21,500 M^−1cm^−1 | 22
3 | COc1c(O)c2c(=O)cc(OC)c3c4c(OC)cc(=O)c5c(NCC6CCC(C(=O)NCCS(=O)(=O)O)CC6)c(NCC6CCC(C(=O)NCCS(=O)(=O)O)CC6)c6c(c(c1CC(C)=C6)c23)c54 (stereo not drawn) [HC-13a-C2-SO3H] | 622 | 31,000 M^−1cm^−1 | 32
4 | COCCOCCOCCOCCOCCOCCOCCOCCOCCOCCOCCOCCOC(=O)C1CCC(Nc2c3c4c5c(c(OC)c(=O)c6c(O)cc(OC)c(c7c(OC)cc(NC8CCC(C(=O)OCCOCCOCCOCCOCCOCCOCCOCCOCCOCCOCCOCCOC)C8)c(c2=O)c74)c65)C(C(C)=O)C(C)=C3)C1 (stereo not drawn) [HB-19c-PEG12] | 636 | 33,500 M^−1cm^−1 | 38
5 | COCCOCCOCCOCCOCCOCCOCCOCCOCCOCCOCCOCCOCCC(=O)N1CCC(CNc2c3c4c5c(c(OC)c(=O)c6c(NCC7CCN(C(=O)CCOCCOCCOCCOCCOCCOCCOCCOCCOCCOCCOCCOCCOC)CC7)cc(OC)c(c7c(OC)c(Br)c(O)c(c2=O)c47)c65)C(C(C)=O)C(C)=C3)CC1 (stereo not drawn) [HB-31d-Br-PEG12] | 632 | 31,500 M^−1cm^−1 | 33
6 | COc1c(NCC(=O)O)c2c(=O)cc(OC)c3c4c(OC)cc(=O)c5c(O)c(NCC(=O)O)c6c(c(c1CC(C)=C6)c23)c54 [HC-7b] | 622 | 28,500 M^−1cm^−1 | 25
7 | COCCOCCOC(=O)C1CCCC1Nc1c(NC2CCCC2C(=O)OCCOCCOC)c2c(=O)cc(OC)c3c4c(OC)cc(=O)c5c(O)c(OC)c6c(c(c1C=C(C)C6C(C)=O)c23)c54 (stereo not drawn) [HB-21a-PEG1] | 624 | 31,500 M^−1cm^−1 | 30
8 | COC(=O)C(CO)Nc1c2c3c4c(c(OC)c(=O)c5c(NC(CO)C(=O)OC)cc(OC)c(c6c(OC)cc(O)c(c1=O)c63)c54)C(C(C)=O)C(C)=C2 (stereo not drawn) [HB-24d] | 621 | 20,500 M^−1cm^−1 | 20
9 | COc1c2c3c4c(c(NCC(=O)O)c(=O)c5c(O)cc(OC)c(c6c(OC)cc(NCCCC(=O)O)c(c1=O)c63)c54)C=C(C)C2C(C)=O (stereo not drawn) [HB-43d] | 623 | 26,500 M^−1cm^−1 | 24
10 | COCCOCCOCCOCCOCCOCCOCCOCCOCCNC(=O)C1CCC(CNc2c3c4c5c(c(OC)c(=O)c6c(NCC7CCC(C(=O)NCCOCCOCCOCCOCCOCCOCCOCCOCCOC)CC7)cc(OC)c(c7c(OC)cc(O)c(c2=O)c74)c65)C(C(C)=O)C(C)=C3)CC1 (stereo not drawn) [HB-13d-NH-PEG8] | 628 | 31,500 M^−1cm^−1 | 32
11 | CCCNc1c2c3c4c(c(OC)c(=O)c5c(NCCC)cc(OC)c(c6c(OC)cc(O)c(c1=O)c63)c54)C(C(C)=O)C(C)=C2 (stereo not drawn) [HB-33d] | 620 | 32,500 M^−1cm^−1 | 32
12 | COc1c2c3c4c(c(NCCCCCCS(=O)(=O)O)c(=O)c5c(NCCCCCCS(=O)(=O)O)cc(OC)c(c6c(OC)cc(O)c(c1=O)c63)c54)C=C(C)C2C(C)=O (stereo not drawn) [HB-11c-C6-SO3H] | 626 | 31,500 M^−1cm^−1 | 38
13 | COc1c2c3c4c(c(NC5CCCCC5C(=O)O)c(=O)c5c(O)cc(OC)c(c6c(OC)cc(NC7CCCCC7C(=O)O)c(c1=O)c63)c54)C=C(C)C2C(C)=O (stereo not drawn) [HB-16d] | 625 | 26,500 M^−1cm^−1 | 26
14 | COc1c2c3c4c(c(NCCCCCC(=O)O)c(=O)c5c(NCCCCCC(=O)O)cc(OC)c(c6c(OC)cc(O)c(c1=O)c63)c54)C=C(C)C2 [HC-9c] | 628 | 27,000 M^−1cm^−1 | 29
15 | COc1c(NCc2cccc[n+]2C)c2c(=O)cc(OC)c3c4c(OC)cc(=O)c5c(O)c(NCc6cccc[n+]6C)c6c(c(c1C(C(C)=O)C(C)=C6)c23)c54 (stereo not drawn) [HB-38b-N^+] | 620 | 21,000 M^−1cm^−1 | 20
16 | COCCOC(=O)C1CCC(CNc2c(NCC3CCC(C(=O)OCCOC)CC3)c3c(=O)cc(OC)c4c5c(OC)cc(=O)c6c(O)c(OC)c7c(c(c2C=C(C)C7)c34)c65)CC1 (stereo not drawn) [HC-13a-PEG1] | 622 | 30,000 M^−1cm^−1 | 32
17 | COCCOCCOCCOCCOCCNC(=O)C1CCC(CNc2c(O)c3c(=O)cc(OC)c4c5c(OC)cc(=O)c6c(NCC7CCC(C(=O)NCCOCCOCCOCCOCCOC)CC7)c(OC)c7c(c(c2C=C(C)C7C(C)=O)c34)c65)CC1 (stereo not drawn) [HB-13b-NH-PEG4] | 622 | 31,000 M^−1cm^−1 | 34
18 | COc1c2c3c4c(c(NCC(=O)O)c(=O)c5c(O)cc(OC)c(c6c(OC)cc(NCC(=O)O)c(c1=O)c63)c54)C=C(C)C2 [HC-7d] | 626 | 26,000 M^−1cm^−1 | 25
19 | COCCOCCOCCOCCOCCOCCOCCOCCOCCOCCOCCOCCOCCN1CCC(CNc2c3c4c5c(c(OC)c(=O)c6c(NCC7CCN(CCOCCOCCOCCOCCOCCOCCOCCOCCOCCOCCOCCOCCOC)CC7)cc(OC)c(c7c(OC)cc(O)c(c2=O)c74)c65)C(C(C)=O)C(C)=C3)CC1 (stereo not drawn) [HB-32d-PEG12] | 632 | 31,500 M^−1cm^−1 | 33
20 | COc1c(NCCCC(=O)O)c2c(=O)cc(OC)c3c4c(OC)cc(=O)c5c(O)c(NCC(=O)O)c6c(c(c1C(C(C)=O)C(C)=C6)c23)c54 (stereo not drawn) [HB-43b] | 618 | 26,000 M^−1cm^−1 | 25
21 | COc1c2c3c4c(c(NCC(=O)O)c(=O)c5c(NCCCC(=O)O)cc(OC)c(c6c(OC)cc(O)c(c1=O)c63)c54)C=C(C)C2C(C)=O (stereo not drawn) [HB-43c] | 626 | 26,500 M^−1cm^−1 | 30
22 | COc1c(O)c2c(=O)cc(OC)c3c4c(OC)cc(=O)c5c(NCc6cccc[n+]6CCCC(=O)O)c(NCc6cccc[n+]6CCCC(=O)O)c6c(c(c1C(C(C)=O)C(C)=C6)c23)c54 (stereo not drawn) [HB-38a-N—COOH] | 620 | 22,000 M^−1cm^−1 | 20
23 | COc1c(NCC2CCC(C(=O)O)CC2)c2c(=O)cc(OC)c3c4c(OC)cc(=O)c5c(O)c(NCC6CCC(C(=O)O)CC6)c6c(c(c1C(C(C)=O)C(C)=C6)c23)c54 (stereo not drawn) [HB-13b] | 621 | 28,000 M^−1cm^−1 | 26
